In patent EP4813991A1 (iLeadBMS Co., Ltd., priority 2023, dated 2025):
Where two headings read alike, the source gives them in different places.

Tests used:
AGS cells = experiment: Gastric cancer cell proliferation inhibitory activity (CellTiter Glo), AGS; assay type: cell-based; conditions: 72 hours, relative IC50
Method: (§1) Experiments were performed using four types of gastric cancer cell lines (AGS, SNU-1, KATO-III, and MKN45) to measure the cell proliferation inhibitory ability of each Example compound. For AGS cells, 90 µL of cell suspension was dispensed into a 96-well plate using F-12K (Gibco) medium containing 10 % FBS, followed by incubation in a cell incubator at 37 °C and 5 % CO2. For SNU-1 and MKN45 cells, 90 µL of cell suspension was dispensed into a 96-well plate using RPMI1640 (Gibco) medium containing 10 % FBS, followed by incubation in a cell incubator at 37 °C and 5 % CO2. For KATO-III cells, 90 uL of cell suspension was dispensed into a 96-well plate using IMDM (Gibco) medium containing 10 % FBS, followed by incubation in a cell incubator at 37 °C and 5 % CO2. The next day, each Example compound dissolved and diluted in DMSO across 9 concentration ranges and a DMSO control group were added at 10 µL to each 96-well plate and treated for 72 hours. After completion of the compound treatment, 100 µL of CellTiter Glo (Promega) reagent was added to each well of the 96-well plate, followed by shaking for 10 minutes and standing at room temperature for 10 minutes. Luminescence signals were measured after inserting the 96-well plate into an Envision plate reader (PerkinElmer). Relative IC50 values were calculated by fitting a dose-response curve using XLfit (IDBS Ltd) software.
(§2) The gastric cancer cell proliferation inhibitory activities of the Example compounds measured by the method described above were evaluated according to the following criteria, and the results are presented in Table 16.

SNU-1 = experiment: Gastric cancer cell proliferation inhibitory activity (CellTiter Glo), SNU-1; assay type: cell-based; conditions: 72 hours, relative IC50
Method: as §1, §2

KATO-III cells = experiment: Gastric cancer cell proliferation inhibitory activity (CellTiter Glo), KATO-III; assay type: cell-based; conditions: 72 hours, relative IC50
Method: as §1, §2

MKN45 cells = experiment: Gastric cancer cell proliferation inhibitory activity (CellTiter Glo), MKN45; assay type: cell-based; conditions: 72 hours, relative IC50
Method: as §1, §2

CDK13 = CDK13 (Homo sapiens, UniProt Q14004); experiment: CDK13 kinase inhibitory activity assay (33P-ATP filter binding); assay type: biochemical
Method in brief: (§3)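 Radiometric filter-binding read-out: after 20 min compound–enzyme/substrate pre-incubation across 9 concentrations, reaction started with ^33P-γ-ATP and run 120 min at room temperature. Filter-bound ^33P-substrate measured after 0.75 % phosphoric acid washes; remaining activity versus DMSO gives IC50.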

[1] = tested on: MDA-MB-231 breast cancer cells; experiment: Proliferation inhibitory activity assay against MDA-MB-231 breast cancer cells; assay type: cell-based; conditions: Homo sapiens, 72 hours, CellTiter Glo, relative IC50
Method in brief: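 Cells grown in L-15 with 10% FBS at 37 °C, 0% CO2, then exposed next day to compounds at 9 concentrations (DMSO vehicle) for 72 h. Viability read by CellTiter Glo luminescence; relative IC50 from dose-response curve fit.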

HCC70 cells = experiment: Breast cancer cell proliferation inhibitory activity, HCC70; assay type: cell-based; conditions: Homo sapiens, 72 hours, CellTiter Glo, relative IC50
Method: (§4) Experiments were conducted using three types of breast cancer cell lines to measure the cell proliferation inhibitory ability of each Example compound. For HCC70 cells, 100 µL of cell suspension was dispensed into a 96-well plate using RPMI1640 (Invitrogen) medium containing 10 % FBS, followed by incubation in a cell incubator at 37 °C and 5 % CO2. For BT-20 cells, 100 µL of cell suspension was dispensed into a 96-well plate using EMEM (Invitrogen) medium containing 10 % FBS, followed by incubation in a cell incubator at 37 °C and 5 % CO2. For MDA-MB-436 cells, 100 µL of cell suspension was dispensed into a 96-well plate using L-15 (Invitrogen) medium containing 10 % FBS, followed by incubation in a cell incubator at 37 °C and 0 % CO2. The next day, each Example compound dissolved and diluted in DMSO across 9 concentration ranges and a DMSO control group were treated on the cells for 72 hours. After completion of the compound treatment, 100 µL of CellTiter Glo (Promega) reagent was added to each well of the 96-wellplate, followed by shaking for 10 minutes and standing at room temperature for 10 minutes. After inserting the 96-well plate into an Envision plate reader (PerkinElmer), luminescence signals were measured. Relative IC50 values were calculated by fitting a dose-response curve using XL fit (IDBS Ltd) software.
(§5) The breast cancer cell proliferation inhibitory activities of the Example compounds measured by the method described above were evaluated according to the following criteria, and the results are presented in Table 15.

BT-20 cells = experiment: Breast cancer cell proliferation inhibitory activity, BT-20; assay type: cell-based; conditions: Homo sapiens, 72 hours, CellTiter Glo, relative IC50
Method: as §4, §5

MDA-MB-436 cells = experiment: Breast cancer cell proliferation inhibitory activity, MDA-MB-436; assay type: cell-based; conditions: Homo sapiens, 72 hours, CellTiter Glo, relative IC50
Method: as §4, §5

CDK12 [2] = target: T1, CDK12 (Homo sapiens, UniProt Q9NYV4); experiment: CDK12 kinase inhibitory activity assay (33P-ATP filter binding); assay type: biochemical
Method in brief: as §3

CDK1 = CDK1 (Homo sapiens, UniProt P06493); experiment: CDK1 kinase inhibitory activity assay and selectivity over CDK12; assay type: biochemical; conditions: for IC50: kinase reaction 120 minutes, 33P-gamma-ATP; for CDK1/CDK12: ratio of CDK1 IC50 to CDK12 IC50
Method: (§6) Before initiating the CDK1 and CDK2 kinase reactions, each Example compound was dissolved and diluted in DMSO as a solvent across 9 concentration ranges at room temperature. The diluted solutions were then incubated with a mixture of kinase and substrate (and cofactors, if required) for 20 minutes. Next, radioisotope-labeled ATP (^33P-gamma-ATP) was added to proceed with the kinase reaction at room temperature for 120 minutes. After the reaction was completed, the reaction mixture was transferred to a filter paper that binds the radioisotope-labeled catalytic product (^33P-substrate). Unreacted ^33P-ATP was removed by washing with 0.75 % phosphoric acid, and then the radioactive phosphorylated substrate remaining on the filter paper was measured. Kinase activity data were expressed as a percentage of the kinase activity remaining in the test sample compared to a DMSO control group. The half-maximal inhibitory concentration (IC50) for each kinase was calculated using Prism software.
(§7) The CDK1 and CDK2 kinase inhibitory activities of the Example compounds measured by the above method were evaluated according to the following criteria, and the results are presented in Table 14.

CDK2 = CDK2 (Homo sapiens, UniProt P24941); experiment: CDK2 kinase inhibitory activity assay and selectivity over CDK12; assay type: biochemical; conditions: for IC50: kinase reaction 120 minutes, 33P-gamma-ATP; for CDK2/CDK12: ratio of CDK2 IC50 to CDK12 IC50
Method: as §6, §7

CDK12 [3] = target: T1, CDK12; experiment: Cellular CDK12 inhibitory activity assay (Ser2 phosphorylation of RNA polymerase II subunit B1 CTD in MDA-MB-231 cells); assay type: cell-based; parameters: using MDA-MB-231 breast cancer cells; endogenous in cells; host or cells: MDA-MB-231; conditions: MDA-MB-231 cells, 6 hours treatment; read-out: pRpbl CTD S2 IC50
Method in brief: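 MDA-MB-231 cells in L-15 with 10 % FBS were treated with compound at 9 concentrations for 6 h at 37 °C, 0 % CO2. In-Cell Western read phospho-Ser2 and total RNA polymerase II CTD on a Li-COR Odyssey; IC50 from 4-parameter dose-response fit.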

[4] = kinase reaction 120 minutes, 33P-gamma-ATP, read-out: CDK13 IC50
[5] = kinase reaction 120 minutes, 33P-gamma-ATP, read-out: CDK12 IC50

Sequence of CDK13 (Q14004 whole entry, species assumed): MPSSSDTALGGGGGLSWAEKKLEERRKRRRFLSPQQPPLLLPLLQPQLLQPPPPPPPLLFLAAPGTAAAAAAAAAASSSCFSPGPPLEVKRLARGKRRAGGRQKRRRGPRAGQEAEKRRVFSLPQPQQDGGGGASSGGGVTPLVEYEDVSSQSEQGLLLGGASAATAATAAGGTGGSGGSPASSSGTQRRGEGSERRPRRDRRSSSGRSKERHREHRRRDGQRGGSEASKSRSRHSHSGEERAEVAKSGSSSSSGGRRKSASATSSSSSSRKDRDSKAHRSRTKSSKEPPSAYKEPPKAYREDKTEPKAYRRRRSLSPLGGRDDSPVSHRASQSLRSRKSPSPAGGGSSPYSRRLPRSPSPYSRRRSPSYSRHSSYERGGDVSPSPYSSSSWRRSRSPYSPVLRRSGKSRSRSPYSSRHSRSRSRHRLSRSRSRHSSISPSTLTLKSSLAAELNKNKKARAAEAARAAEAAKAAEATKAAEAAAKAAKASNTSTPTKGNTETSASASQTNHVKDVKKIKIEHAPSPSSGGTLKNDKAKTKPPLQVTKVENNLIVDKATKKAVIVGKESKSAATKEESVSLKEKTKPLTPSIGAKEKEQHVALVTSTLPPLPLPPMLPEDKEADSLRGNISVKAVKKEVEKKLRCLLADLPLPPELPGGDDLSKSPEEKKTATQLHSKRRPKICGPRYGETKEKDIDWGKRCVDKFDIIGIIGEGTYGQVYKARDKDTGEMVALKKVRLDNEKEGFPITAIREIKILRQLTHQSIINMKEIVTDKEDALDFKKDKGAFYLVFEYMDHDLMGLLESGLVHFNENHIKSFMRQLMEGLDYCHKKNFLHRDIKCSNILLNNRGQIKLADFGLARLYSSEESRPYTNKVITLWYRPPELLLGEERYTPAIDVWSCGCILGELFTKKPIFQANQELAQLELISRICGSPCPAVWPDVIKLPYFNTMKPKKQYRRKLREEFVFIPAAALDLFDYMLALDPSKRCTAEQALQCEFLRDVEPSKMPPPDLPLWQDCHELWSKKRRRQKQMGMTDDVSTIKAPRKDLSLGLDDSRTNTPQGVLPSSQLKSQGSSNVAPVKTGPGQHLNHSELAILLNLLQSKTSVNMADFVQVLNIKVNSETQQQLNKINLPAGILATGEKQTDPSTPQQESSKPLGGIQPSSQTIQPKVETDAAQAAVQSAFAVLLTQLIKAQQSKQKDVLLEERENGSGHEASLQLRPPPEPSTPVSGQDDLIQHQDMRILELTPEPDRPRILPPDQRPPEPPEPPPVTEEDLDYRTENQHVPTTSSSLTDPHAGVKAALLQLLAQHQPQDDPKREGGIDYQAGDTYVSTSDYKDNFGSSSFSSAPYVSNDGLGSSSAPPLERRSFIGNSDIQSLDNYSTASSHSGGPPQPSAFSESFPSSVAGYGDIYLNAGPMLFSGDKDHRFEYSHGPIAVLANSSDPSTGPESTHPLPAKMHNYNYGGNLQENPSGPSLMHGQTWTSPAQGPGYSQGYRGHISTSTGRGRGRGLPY
Sequence of CDK13 (O75909 whole entry partner, species assumed): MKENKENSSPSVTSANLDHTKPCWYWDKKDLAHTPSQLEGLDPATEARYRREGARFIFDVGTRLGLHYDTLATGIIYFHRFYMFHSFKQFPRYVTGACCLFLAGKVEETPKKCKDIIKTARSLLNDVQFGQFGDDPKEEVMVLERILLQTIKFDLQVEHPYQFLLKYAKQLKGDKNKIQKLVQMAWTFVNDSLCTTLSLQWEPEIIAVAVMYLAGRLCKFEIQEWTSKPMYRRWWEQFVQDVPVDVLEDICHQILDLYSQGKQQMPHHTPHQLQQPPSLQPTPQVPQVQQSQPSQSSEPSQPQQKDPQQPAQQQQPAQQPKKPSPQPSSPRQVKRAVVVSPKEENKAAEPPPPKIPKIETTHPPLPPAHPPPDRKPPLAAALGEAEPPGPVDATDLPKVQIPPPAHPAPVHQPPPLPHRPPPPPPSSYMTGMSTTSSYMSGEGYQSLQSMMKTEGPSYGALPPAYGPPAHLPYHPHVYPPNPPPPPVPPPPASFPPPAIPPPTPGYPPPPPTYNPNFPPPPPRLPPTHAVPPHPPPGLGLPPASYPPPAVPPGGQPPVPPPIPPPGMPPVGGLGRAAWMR
T1 sequence (Q9NYV4 whole entry, species assumed): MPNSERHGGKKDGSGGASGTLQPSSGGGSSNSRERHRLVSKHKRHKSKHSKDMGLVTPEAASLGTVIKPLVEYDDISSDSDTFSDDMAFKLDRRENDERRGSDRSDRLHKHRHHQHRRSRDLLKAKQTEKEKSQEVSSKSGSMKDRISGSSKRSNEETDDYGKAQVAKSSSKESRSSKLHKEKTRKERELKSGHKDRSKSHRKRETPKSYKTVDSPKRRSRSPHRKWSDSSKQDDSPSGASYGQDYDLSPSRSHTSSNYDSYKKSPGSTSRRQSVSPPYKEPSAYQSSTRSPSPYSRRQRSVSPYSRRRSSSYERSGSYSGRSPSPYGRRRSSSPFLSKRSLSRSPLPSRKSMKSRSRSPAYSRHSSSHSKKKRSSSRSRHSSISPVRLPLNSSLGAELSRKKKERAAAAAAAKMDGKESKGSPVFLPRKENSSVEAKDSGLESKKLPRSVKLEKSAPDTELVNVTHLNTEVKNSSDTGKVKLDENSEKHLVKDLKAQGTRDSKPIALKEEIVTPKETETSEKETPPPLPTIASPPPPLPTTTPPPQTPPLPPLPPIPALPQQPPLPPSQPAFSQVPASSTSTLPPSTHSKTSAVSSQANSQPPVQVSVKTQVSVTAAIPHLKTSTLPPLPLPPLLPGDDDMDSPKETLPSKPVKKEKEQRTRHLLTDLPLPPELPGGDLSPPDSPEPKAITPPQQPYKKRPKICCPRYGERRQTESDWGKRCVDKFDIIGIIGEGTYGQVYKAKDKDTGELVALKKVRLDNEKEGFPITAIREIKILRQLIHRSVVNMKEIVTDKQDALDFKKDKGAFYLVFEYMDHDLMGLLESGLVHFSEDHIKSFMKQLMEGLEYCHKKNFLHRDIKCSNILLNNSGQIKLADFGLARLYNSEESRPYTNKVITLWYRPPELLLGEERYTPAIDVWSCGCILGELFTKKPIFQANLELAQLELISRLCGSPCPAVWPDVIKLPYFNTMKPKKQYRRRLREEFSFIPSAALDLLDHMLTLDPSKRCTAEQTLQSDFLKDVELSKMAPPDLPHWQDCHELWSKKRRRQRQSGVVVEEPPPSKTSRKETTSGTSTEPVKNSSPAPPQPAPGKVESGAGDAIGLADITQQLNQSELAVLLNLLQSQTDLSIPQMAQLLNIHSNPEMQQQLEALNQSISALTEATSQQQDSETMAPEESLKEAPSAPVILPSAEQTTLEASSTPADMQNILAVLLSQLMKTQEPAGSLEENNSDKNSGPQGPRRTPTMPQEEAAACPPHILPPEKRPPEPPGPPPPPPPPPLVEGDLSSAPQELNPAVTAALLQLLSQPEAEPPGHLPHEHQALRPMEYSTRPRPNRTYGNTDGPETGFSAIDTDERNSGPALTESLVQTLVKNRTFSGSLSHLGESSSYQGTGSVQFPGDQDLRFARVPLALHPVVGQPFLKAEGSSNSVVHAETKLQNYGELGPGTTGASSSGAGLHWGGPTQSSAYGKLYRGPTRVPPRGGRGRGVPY
T1 sequence (O75909 whole entry partner, species assumed): as the sequence (O75909 whole entry partner, species assumed) above
Sequence of CDK1 (P06493 whole entry, species assumed): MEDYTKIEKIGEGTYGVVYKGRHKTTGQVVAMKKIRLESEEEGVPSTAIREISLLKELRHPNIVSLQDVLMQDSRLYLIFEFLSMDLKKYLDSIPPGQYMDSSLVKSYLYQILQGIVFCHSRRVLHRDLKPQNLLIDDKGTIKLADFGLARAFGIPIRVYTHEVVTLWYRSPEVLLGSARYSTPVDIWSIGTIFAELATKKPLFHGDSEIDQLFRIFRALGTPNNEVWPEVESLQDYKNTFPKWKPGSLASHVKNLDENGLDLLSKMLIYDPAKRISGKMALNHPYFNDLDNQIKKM
Sequence of CDK1 (P14635 whole entry partner, species assumed): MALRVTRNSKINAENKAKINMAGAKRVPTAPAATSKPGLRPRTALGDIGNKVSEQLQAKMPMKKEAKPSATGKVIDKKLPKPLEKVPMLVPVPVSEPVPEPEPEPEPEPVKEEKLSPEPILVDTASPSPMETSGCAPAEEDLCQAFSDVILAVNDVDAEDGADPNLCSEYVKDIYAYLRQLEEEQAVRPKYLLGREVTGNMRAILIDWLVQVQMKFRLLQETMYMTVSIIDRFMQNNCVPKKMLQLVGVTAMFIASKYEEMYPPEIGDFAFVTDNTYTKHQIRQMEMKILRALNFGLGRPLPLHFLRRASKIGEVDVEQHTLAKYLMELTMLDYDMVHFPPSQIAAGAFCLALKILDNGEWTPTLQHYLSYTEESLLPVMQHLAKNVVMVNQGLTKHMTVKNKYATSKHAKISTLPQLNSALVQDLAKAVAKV

IC50 (CDK13; [4]) [nM]	IC50 [1] [nM]	IC50 (BT-20 cells) [nM]	IC50 (MDA-MB-436 cells) [nM]	IC50 (CDK12 [2]; [5]) [nM]	IC50 (CDK1) [nM]	IC50 (CDK2) [nM]	IC50 (CDK12 [3]) [nM]	IC50 (CDK13) [nM]	Structure (SMILES)	IC50 (AGS cells) [nM]	IC50 (SNU-1) [nM]	IC50 (KATO-III cells) [nM]	IC50 (MKN45 cells) [nM]	IC50 (HCC70 cells) [nM]	CDK2/CDK12 (CDK2)	CDK1/CDK12 (CDK1)	IC50 (CDK12 [2]) [nM]
									N.N.[Cl][Pt][Cl] [Cisplatin, reference compound]	> 1000	> 1000	> 1000	> 1000				
100 to 500	50 to 500	50 to 1000	50 to 1000						Cn1cc(-n2cnc3c(NCc4nc5cc(Cl)c(Cl)cc5[nH]4)nc(N4CCOCC4)nc32)cn1 [SR-4835, reference compound]					50 to 1000			
< 100	≤ 50			< 100	> 1000	> 1000	< 300		CN1CC2(C1)CN(c1cc(NCc3nc4cc(Cl)c(Cl)cc4[nH]3)c3ncc(C(F)(F)F)n3n1)C2 [Example 46, N-((5,6-dichloro-1H-benzo[d]imidazol-2-yl)methyl)-6-(6-methyl-2,6-diazaspiro[3.3]heptan-2-yl)-3-(trifluoromethyl)imidazo[1,2-b]pyridazin-8-amine]						B (100-fold < CDK1/CDK12 or CDK2/CDK12 ≤ 500-fold)		
< 100	50 to 500			< 100	> 1000	> 1000	< 300		OC1CN(c2cc(NCc3nc4cc(Cl)c(Cl)cc4[nH]3)c3ncc(C(F)(F)F)n3n2)C1 [Example 41, 1-(8-(((5,6-dichloro-1H-benzo[d]imidazol-2-yl)methyl)amino)-3-(trifluoromethyl)imidazo[1,2-b]pyridazin-6-yl)azetidin-3-ol]						B (100-fold < CDK1/CDK12 or CDK2/CDK12 ≤ 500-fold)	B (100-fold < CDK1/CDK12 or CDK2/CDK12 ≤ 500-fold)	
< 100	≤ 50			100 to 500	> 1000	> 1000	< 300		FC(F)(F)c1cnc2c(NCc3nc4cc(Cl)c(Cl)cc4[nH]3)cc(N3CCOCC3)nn12 [Example 68, N-((5,6-dichloro-1H-benzo[d]imidazol-2-yl)methyl)-6-morpholino-3-(trifluoromethyl)imidazo[1,2-b]pyridazin-8-amine]						C (CDK1/CDK12 or CDK2/CDK12 ≤ 100-fold)	C (CDK1/CDK12 or CDK2/CDK12 ≤ 100-fold)	
		> 1000	> 1000						O=C(c1cc(Cc2n[nH]c(=O)c3ccccc23)ccc1F)N1CCN(C(=O)C2CC2)CC1 [Olaparib, reference compound]					> 1000			
< 100	≤ 50			< 100	> 1000	> 1000	< 300		Cc1cc2nc(CNc3cc(N4CCOCC4)nn4c(C(F)(F)F)cnc34)[nH]c2cc1C [Example 72, N-((5,6-dimethyl-1H-benzo[d]imidazol-2-yl)methyl)-6-morpholino-3-(trifluoromethyl)imidazo[1,2-b]pyridazin-8-amine]						A (CDK1/CDK12 or CDK2/CDK12 > 500-fold)	A (CDK1/CDK12 or CDK2/CDK12 > 500-fold)	
		> 1000							CC(=O)c1c(C)c2cnc(Nc3ccc(N4CCNCC4)cn3)nc2n(C2CCCC2)c1=O [Palbociclib, reference compound]					> 1000			
	≤ 50			< 100	> 1000	> 1000	300 to 3000	< 100	OC1CCN(c2cc(NCc3nc4ccc(F)c(F)c4[nH]3)c3ncc(C(F)(F)F)n3n2)CC1 [Example 19, 1-(8-(((6,7-difluoro-1H-benzo[d]imidazol-2-yl)methyl)amino)-3-(trifluoromethyl)imidazo[1,2-b]pyridazin-6-yl)piperidin-4-ol]						A (CDK1/CDK12 or CDK2/CDK12 > 500-fold)	A (CDK1/CDK12 or CDK2/CDK12 > 500-fold)	

Structure (SMILES)	IC50 (CDK13; [4]) [nM]	IC50 [1] [nM]	IC50 (BT-20 cells) [nM]	IC50 (MDA-MB-436 cells) [nM]	IC50 (CDK12 [2]; [5]) [nM]	IC50 (CDK1) [nM]	IC50 (CDK2) [nM]	IC50 (CDK12 [3]) [nM]	IC50 (CDK13) [nM]	IC50 (AGS cells) [nM]	IC50 (SNU-1) [nM]	IC50 (KATO-III cells) [nM]	IC50 (MKN45 cells) [nM]	IC50 (HCC70 cells) [nM]	CDK2/CDK12 (CDK2)	CDK1/CDK12 (CDK1)	IC50 (CDK12 [2]) [nM]
CN1CC2CCC(C1)N2c1cc(NCc2nc3ccc(F)c(F)c3[nH]2)c2ncc(C(F)(F)F)n2n1 [Example 13]	< 100	≤ 50			< 100	> 1000	> 1000	< 300							B (100-fold < CDK1/CDK12 or CDK2/CDK12 ≤ 500-fold)	A (CDK1/CDK12 or CDK2/CDK12 > 500-fold)	
OC1CC2CCC(C1)N2c1cc(NCc2nc3ccc(F)c(F)c3[nH]2)c2ncc(C(F)(F)F)n2n1 (centres unmarked) [Example 14, 8-(8-(((6,7-difluoro-1H-benzo[d]imidazol-2-yl)methyl)amino)-3-(trifluoromethyl)imidazo[1,2-b]pyridazin-6-yl)-8-azabicyclo[3.2.1]octan-3-ol]	< 100	≤ 50			100 to 500	> 1000	100 to 1000	< 300							C (CDK1/CDK12 or CDK2/CDK12 ≤ 100-fold)	C (CDK1/CDK12 or CDK2/CDK12 ≤ 100-fold)	
FC(F)(F)c1cnc2c(NCc3nc4cc(Cl)c(Cl)cc4[nH]3)cc(N3CC4CCC(C3)O4)nn12 [Example 42]	< 100	50 to 500				> 1000	> 1000	300 to 3000									100 to 500
Fc1ccc2nc(CNc3cc(N4C5CCC4CNC5)nn4c(C(F)(F)F)cnc34)[nH]c2c1F [Example 11, 6-(3,8-diazabicyclo[3.2.1]octan-8-yl)-N-((6,7-difluoro-1H-benzo[d]imidazol-2-yl)methyl)-3-(trifluoromethyl)imidazo[1,2-b]pyridazin-8-amine]	< 100	≤ 50			< 100	100 to 1000	100 to 1000	< 300							B (100-fold < CDK1/CDK12 or CDK2/CDK12 ≤ 500-fold)	B (100-fold < CDK1/CDK12 or CDK2/CDK12 ≤ 500-fold)	
